Among the data in ChEMBL document CHEMBL1201862, “PubChem BioAssay data set” (2004) are EC50, IC50 and AC50 values, retold here.

Activity calls are given as the source filed them.

The EC50 is the concentration giving half of the maximal effect. As a reminder, the IC50 is the concentration needed to halve the response being measured. By AC50 is commonly meant the concentration at which the activity in the assay is half-maximal.

One assay deals with Beta-galactosidase (Escherichia coli, UniProt Q8VNN2). As to the kind of experiment: PubChem AID 485352. The class given is functional.
The target in assay [1] is T1, Type-1 angiotensin II receptor (Homo sapiens, UniProt P30556).
T1 sequence (P30556 whole entry): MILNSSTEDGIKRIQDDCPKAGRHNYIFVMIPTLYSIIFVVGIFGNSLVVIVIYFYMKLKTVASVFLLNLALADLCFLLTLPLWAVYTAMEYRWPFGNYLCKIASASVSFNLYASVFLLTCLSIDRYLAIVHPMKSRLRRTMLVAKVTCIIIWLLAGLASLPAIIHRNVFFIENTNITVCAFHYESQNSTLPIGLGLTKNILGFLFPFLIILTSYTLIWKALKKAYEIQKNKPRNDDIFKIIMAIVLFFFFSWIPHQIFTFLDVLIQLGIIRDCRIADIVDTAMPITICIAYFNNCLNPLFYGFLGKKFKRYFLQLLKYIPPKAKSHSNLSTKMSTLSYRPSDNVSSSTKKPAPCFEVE
As to the kind of experiment: antagonism of angiotensin II type 1 receptor – cell-based, uHTS hits, selectivity assay for APJ receptor antagonist project, dose response (AID 463214).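 Further: antagonist potency against angiotensin II stimulated AT1 response.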 The class given is functional.

The target of assay [2] is Long-chain-fatty-acid--AMP ligase FadD28 (Mycobacterium tuberculosis, UniProt P9WQ59). Briefly: Fluorescence polarization aasay to screen for inhibitors that compete for the binding of FadD28 to a bisubstrate Measured in Biochemical System Using Plate Reader - 2147-01_Inhibitor_Dose_CherryPick_Activity. The assay is classed as functional, Mycobacterium tuberculosis H37Rv. (In general: In fluorescence polarisation assays a small probe gives low polarisation when free and higher when bound to something large.)

A short description of assay [3]: Counterscreen for inhibitors of Trypanosoma brucei methionyl tRNA synthetase (MetRS): Luminescence-based cell-based high throughput dose response assay to identify compounds that are cytotoxic to Jurkat human T lymphocyte cells. The assay is classed as functional.
Assay [4] concerns the target T2, Methionyl-tRNA synthetase, putative (Trypanosoma brucei brucei, UniProt Q38C91). The class given is functional, Trypanosoma brucei brucei strain 927/4 GUTat10.1.
The target of assay [5] is T2, Methionyl-tRNA synthetase, putative. The assay is classed as functional, Trypanosoma brucei brucei strain 927/4 GUTat10.1. This is another data set of the same source.
In assay [6] the target is T3, Replicative DNA helicase DnaB (Mycobacterium tuberculosis, UniProt P9WMR3).
T3 sequence (P9WMR3 whole entry): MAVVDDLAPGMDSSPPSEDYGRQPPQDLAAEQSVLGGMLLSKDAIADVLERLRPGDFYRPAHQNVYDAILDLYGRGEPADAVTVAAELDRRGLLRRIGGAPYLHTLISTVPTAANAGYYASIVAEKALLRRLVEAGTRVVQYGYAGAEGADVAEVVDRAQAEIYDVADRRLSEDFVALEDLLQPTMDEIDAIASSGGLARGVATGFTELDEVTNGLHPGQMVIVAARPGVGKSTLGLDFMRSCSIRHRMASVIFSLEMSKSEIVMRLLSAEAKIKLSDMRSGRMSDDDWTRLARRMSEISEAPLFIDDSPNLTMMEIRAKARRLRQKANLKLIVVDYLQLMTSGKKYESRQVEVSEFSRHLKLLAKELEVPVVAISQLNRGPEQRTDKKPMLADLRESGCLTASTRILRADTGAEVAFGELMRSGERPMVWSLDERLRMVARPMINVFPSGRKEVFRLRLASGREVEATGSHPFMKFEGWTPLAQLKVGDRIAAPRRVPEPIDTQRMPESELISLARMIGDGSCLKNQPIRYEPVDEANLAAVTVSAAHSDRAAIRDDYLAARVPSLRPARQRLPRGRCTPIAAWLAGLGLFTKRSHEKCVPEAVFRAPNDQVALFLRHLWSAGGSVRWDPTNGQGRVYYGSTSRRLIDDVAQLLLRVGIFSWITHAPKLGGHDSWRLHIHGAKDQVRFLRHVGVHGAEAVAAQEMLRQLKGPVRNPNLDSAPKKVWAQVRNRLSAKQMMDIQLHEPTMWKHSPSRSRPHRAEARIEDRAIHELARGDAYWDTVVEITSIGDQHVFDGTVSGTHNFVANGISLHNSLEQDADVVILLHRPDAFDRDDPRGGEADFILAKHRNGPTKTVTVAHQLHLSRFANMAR
As to the kind of experiment: DnaB intein splicing inhibitors, dose response, biochemical, cell-free fluorescence (AID 449749). The assay is classed as functional.

For a further assay, the target named is T4, Protein RecA (Mycobacterium tuberculosis, UniProt P9WHJ3).
T4 sequence (P9WHJ3 whole entry): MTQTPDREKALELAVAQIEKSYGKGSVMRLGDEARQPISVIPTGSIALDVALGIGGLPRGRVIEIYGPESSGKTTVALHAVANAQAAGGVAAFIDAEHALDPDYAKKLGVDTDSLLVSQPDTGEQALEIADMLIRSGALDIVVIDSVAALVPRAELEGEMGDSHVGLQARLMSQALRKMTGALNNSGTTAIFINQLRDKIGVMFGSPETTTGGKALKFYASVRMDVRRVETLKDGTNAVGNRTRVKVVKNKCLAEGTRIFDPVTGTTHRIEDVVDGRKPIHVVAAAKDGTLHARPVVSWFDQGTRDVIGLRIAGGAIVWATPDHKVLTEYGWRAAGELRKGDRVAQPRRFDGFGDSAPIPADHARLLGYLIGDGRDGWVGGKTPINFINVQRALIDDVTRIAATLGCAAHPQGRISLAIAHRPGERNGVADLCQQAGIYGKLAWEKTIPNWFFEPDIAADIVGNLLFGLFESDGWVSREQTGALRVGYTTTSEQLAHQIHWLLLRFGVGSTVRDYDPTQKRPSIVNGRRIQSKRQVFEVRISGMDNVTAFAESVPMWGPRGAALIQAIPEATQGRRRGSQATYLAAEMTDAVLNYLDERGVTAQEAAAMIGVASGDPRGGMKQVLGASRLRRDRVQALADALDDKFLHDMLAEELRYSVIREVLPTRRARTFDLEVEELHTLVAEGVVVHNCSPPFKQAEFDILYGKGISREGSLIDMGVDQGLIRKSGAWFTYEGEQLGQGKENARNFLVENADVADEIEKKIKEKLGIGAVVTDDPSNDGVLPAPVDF
Briefly: Fluorescence Cell-Free Homogeneous Dose Retest to Identify Inhibitors of RecA-Intein Splicing Activity. [Related pubchem assays (depositor defined):AID2097, AID2223, AID489010, AID492950]. The class given is functional.

Assay [7] addresses Arf-GAP with SH3 domain, ANK repeat and PH domain-containing protein 1 (Homo sapiens, UniProt Q9ULH1). The assay is classed as functional.
Assay [8] has as its target T5, Apoptotic protease-activating factor 1 (Homo sapiens, UniProt O14727).
T5 sequence (O14727 whole entry): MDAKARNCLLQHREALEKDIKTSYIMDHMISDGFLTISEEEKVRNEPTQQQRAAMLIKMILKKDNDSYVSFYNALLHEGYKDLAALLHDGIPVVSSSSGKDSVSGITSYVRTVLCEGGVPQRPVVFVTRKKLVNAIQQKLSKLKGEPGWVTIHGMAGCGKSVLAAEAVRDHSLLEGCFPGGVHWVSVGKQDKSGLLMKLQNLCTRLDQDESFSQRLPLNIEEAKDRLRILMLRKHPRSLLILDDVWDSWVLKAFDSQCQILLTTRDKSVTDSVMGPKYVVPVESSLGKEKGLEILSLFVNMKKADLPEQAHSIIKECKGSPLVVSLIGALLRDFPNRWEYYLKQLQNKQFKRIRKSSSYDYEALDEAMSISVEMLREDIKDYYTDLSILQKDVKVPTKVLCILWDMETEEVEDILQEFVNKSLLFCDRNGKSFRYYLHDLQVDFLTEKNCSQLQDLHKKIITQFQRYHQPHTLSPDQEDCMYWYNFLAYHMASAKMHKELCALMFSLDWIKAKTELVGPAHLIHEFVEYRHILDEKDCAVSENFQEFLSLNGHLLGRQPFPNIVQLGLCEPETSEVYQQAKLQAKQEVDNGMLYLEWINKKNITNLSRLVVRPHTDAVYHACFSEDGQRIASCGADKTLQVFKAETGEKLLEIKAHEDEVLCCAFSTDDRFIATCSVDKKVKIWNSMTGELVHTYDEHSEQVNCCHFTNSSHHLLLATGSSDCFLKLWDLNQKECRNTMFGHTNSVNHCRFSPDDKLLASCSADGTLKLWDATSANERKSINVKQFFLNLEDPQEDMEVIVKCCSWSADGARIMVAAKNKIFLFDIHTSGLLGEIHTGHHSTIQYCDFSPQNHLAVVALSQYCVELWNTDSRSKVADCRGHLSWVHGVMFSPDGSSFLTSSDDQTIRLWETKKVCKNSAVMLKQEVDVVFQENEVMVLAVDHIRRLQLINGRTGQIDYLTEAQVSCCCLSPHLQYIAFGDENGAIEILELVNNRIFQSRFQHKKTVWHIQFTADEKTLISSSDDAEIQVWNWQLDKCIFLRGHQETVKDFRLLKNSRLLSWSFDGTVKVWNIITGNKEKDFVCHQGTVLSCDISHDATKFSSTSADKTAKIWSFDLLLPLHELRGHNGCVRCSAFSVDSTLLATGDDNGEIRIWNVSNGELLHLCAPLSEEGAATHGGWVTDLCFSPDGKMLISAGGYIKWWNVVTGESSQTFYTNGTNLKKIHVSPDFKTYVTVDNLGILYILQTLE
The assay is classed as functional.

The target in assay [9] is T6, Tyrosyl-DNA phosphodiesterase 2 (Homo sapiens, UniProt O95551).
T6 sequence (O95551 whole entry): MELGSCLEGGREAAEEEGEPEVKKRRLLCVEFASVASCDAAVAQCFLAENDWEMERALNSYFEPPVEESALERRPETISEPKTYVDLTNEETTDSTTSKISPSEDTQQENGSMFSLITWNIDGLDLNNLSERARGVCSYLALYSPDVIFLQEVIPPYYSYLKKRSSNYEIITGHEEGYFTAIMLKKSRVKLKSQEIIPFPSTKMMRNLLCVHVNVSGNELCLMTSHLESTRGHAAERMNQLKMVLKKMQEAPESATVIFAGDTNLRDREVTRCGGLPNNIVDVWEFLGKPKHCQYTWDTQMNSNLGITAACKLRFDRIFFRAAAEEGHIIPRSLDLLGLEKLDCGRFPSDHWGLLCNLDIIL
As to the kind of experiment: potency against TDP2 phosphodiesterase activity – biochemical, epi absorbance, IC50, dose response (AID 743297).

Assay [10] can be described thus: mouse fibroblast viability loss – cell-based, cherry-pick samples, set 2, cytotoxicity control for T. cruzi growth inhibitor project, dose response (AID 651817). The class given is functional. The conditions noted are these: NIH3T3.
Assay [11] addresses T7, Sentrin-specific protease 8 (Homo sapiens, UniProt Q96LD8).
T7 sequence (Q96LD8 whole entry): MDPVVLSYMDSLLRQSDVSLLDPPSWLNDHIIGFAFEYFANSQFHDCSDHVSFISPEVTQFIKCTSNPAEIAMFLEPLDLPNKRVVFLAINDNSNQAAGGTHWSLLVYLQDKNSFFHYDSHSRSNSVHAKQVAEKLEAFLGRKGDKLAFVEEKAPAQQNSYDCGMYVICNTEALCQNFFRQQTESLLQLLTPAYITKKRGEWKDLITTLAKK
The class given is functional.

Assay [12] concerns the target T7, Sentrin-specific protease 8. The assay is classed as functional. This is another data set of the same source.
In another assay the target is T8, Caspase-3 (Homo sapiens, UniProt P42574).
T8 sequence (P42574 whole entry): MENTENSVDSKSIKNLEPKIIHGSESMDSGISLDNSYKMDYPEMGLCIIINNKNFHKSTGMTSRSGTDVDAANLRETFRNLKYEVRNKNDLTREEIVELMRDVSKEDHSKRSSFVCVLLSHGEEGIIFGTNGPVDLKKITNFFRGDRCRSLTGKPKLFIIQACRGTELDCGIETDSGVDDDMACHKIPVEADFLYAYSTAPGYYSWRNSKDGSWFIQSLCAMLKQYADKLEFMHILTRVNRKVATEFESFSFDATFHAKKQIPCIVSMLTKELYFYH
As to the kind of experiment: Dose-response confirmation of uHTS inhibitor hits of Sentrin-Specific Protease 8 in a Caspase-3 Fluorescence assay. The assay is classed as functional.

T2 sequence (Q38C91 whole entry): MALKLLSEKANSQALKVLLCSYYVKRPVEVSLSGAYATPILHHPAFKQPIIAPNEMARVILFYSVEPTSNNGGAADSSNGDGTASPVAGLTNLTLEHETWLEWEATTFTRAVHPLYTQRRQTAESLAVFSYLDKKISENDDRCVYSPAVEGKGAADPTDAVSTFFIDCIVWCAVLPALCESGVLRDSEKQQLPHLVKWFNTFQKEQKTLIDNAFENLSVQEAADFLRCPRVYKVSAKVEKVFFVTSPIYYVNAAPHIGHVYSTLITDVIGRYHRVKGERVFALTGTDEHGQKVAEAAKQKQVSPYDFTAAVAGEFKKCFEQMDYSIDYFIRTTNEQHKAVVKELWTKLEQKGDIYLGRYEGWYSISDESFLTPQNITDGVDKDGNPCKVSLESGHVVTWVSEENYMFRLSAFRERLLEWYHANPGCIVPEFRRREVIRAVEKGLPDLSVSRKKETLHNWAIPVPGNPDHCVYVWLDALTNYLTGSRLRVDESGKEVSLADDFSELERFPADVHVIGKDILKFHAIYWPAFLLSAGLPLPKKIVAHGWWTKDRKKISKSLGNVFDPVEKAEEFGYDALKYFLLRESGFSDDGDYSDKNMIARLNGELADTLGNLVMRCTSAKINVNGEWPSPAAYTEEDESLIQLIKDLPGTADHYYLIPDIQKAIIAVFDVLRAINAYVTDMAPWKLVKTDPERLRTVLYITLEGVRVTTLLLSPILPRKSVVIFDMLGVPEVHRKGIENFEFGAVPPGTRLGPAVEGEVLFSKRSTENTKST
Chain of Long-chain-fatty-acid--AMP ligase FadD28 (P9WQ59 whole entry): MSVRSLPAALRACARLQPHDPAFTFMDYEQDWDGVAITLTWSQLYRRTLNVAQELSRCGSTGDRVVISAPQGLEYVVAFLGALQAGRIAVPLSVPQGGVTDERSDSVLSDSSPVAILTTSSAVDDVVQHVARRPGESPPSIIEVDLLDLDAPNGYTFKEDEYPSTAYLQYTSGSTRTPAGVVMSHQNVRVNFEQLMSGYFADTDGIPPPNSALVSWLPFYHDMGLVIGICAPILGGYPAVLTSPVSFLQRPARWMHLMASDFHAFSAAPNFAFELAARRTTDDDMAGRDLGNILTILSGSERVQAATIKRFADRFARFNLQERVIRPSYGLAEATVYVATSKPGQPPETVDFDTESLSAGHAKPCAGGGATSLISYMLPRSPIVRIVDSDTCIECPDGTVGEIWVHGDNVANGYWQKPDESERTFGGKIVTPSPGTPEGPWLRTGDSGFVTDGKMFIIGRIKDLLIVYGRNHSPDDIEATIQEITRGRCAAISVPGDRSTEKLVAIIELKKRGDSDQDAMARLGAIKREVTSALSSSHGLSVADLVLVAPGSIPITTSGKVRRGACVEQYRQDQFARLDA
Chain of Arf-GAP with SH3 domain, ANK repeat and PH domain-containing protein 1 (Q9ULH1 whole entry, the tested form may be a part): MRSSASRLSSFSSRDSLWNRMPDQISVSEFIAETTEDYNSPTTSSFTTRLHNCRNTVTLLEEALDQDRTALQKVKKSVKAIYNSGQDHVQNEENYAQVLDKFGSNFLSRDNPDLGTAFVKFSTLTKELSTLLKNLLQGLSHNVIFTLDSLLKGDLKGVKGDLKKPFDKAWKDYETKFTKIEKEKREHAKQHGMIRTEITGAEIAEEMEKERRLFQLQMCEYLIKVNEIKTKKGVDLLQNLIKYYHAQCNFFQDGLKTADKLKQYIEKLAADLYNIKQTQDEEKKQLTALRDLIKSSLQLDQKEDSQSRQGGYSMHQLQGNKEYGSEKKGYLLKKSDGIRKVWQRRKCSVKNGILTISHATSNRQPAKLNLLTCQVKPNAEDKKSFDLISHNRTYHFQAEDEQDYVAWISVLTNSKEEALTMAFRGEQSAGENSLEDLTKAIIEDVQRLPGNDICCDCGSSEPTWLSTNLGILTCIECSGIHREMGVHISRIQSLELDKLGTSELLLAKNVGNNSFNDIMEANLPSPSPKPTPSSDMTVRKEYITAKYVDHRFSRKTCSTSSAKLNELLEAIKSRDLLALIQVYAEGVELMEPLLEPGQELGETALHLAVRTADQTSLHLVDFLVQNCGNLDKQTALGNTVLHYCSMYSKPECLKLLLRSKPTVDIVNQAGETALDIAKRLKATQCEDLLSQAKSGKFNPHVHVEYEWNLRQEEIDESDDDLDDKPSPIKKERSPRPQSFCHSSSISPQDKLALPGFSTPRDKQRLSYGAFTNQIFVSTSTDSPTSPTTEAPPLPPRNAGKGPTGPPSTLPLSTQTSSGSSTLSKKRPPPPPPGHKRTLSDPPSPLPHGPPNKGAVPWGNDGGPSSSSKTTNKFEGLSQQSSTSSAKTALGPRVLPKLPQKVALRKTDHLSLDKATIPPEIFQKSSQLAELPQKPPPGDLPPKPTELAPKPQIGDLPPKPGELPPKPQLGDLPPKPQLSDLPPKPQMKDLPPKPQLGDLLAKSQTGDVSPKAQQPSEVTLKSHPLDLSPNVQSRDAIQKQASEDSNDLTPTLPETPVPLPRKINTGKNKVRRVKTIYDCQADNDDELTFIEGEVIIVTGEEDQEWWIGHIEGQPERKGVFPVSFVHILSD
Chain of Beta-galactosidase (Q8VNN2 whole entry): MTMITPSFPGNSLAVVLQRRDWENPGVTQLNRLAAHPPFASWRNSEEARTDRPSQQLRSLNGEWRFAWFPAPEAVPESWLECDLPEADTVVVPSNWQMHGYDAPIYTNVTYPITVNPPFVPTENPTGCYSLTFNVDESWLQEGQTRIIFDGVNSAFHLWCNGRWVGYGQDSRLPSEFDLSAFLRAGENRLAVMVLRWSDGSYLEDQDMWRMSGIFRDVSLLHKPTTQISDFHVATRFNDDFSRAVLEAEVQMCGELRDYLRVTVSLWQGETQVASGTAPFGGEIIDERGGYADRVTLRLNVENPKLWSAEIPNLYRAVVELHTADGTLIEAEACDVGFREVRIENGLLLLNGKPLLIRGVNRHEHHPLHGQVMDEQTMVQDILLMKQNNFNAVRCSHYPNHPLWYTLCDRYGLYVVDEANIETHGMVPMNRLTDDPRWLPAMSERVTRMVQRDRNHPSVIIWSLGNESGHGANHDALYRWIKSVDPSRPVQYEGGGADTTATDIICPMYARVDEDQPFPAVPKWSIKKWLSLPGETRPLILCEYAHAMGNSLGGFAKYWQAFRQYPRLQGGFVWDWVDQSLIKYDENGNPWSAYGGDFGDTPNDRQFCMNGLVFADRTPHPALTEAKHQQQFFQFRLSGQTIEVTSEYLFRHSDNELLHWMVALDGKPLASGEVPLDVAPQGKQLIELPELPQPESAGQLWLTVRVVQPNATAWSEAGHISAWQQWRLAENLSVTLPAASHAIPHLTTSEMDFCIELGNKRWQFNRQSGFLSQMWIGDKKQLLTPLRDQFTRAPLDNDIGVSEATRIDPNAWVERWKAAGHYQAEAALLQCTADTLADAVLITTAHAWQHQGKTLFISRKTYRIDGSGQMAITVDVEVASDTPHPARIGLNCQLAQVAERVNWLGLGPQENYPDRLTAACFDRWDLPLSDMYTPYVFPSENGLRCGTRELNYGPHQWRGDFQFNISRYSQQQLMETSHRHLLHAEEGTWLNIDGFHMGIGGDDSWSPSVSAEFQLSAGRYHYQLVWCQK

As to `Cc1ccc(NC(=S)NNC(=O)c2ccc(N3CCOCC3)c([N+](=O)[O-])c2)cc1Cl`, the EC50 at Beta-galactosidase is > 40 µM (inactive). For the same compound, the half-maximal inhibitory concentration (IC50) in assay [1] was > 40 µM (not active). Moreover, in assay [2], the AC50 is 30.9 µM (active).
For the compound `CSC[C@H]1CN(Cc2cccnc2)C(=O)[C@@H]1CC(=O)Nc1ccc(Br)cc1`, the IC50 in assay [3] was 83.3 µM (inactive); in assay [4], 7.58 µM (active); in [5], 3.02 µM (active).
On to `CC(=O)c1cccc(-c2ccc3c(=O)[nH]c(Nc4ccccc4)cc3c2)c1`, for which, in [6], the AC50 was > 380 µM (inactive). At Protein RecA, the EC50 is 2.14 µM (active). Besides, the results for the IC50 in assay [7], in assay [8] and in [9] were 165 µM (inactive), 3.02 µM (active) and 25.9 µM (inactive), respectively.
As for `Cc1ccc(S(=O)(=O)N(C)C[C@@H]2Oc3c(NC(=O)c4nc5ccccc5s4)cccc3C(=O)N([C@@H](C)CO)C[C@@H]2C)cc1`, the AC50 in assay [10] was 39 µM (inactive).
For `Cc1ccc(S(=O)(=O)N2CCOCC2)cc1C(=O)OCC(=O)N1CCc2ccccc2C1`, the IC50 in assay [11] is 62.2 µM (inactive); in [12] it was 24.4 µM (active); on Caspase-3, 92.7 µM (inactive).
